Structures can show the parent of a compound that is named as a salt.
The compounds below were run against T1, purified human IDO protein (Homo sapiens, UniProt P14902, E119G/P110S) (assay: Enzymatic IDO assay (kynurenine formation, absorbance at 480 nm)). Details: recombinant human IDO, 200 μM L-tryptophan, pH 6.5; reported in ranges.
T1 construct: 6-Histidine tag (C); made in house; host or cells: E. coli M15(pREP4) transformed with pQE70-hIDO
Format: biochemical
Method: The inhibitors were initially diluted in DMSO at 100 mM and were diluted in potassium phosphate 50 mM, added to the reaction mixture at final concentrations raging from 1 mM to 5 nM and preincubated with the enzyme for 5 min at 25° C. The reaction was started by addition of L-tryptophan to 200 μM and incubated 15 min at 37° C. The reaction was stopped by addition of 0.5 vol of 30% trichloroacetic acid and incubated 30 min at 60° C. to hydrolyze N-formylkynurenine to kynurenine. The reaction was centrifuged at 3400 g for 5 min to remove precipitated protein and the supernatant was reacted with 2% (w/v) of p-dimethylaminobenzaldehyde in acetic acid. The reaction was incubated 10 min at 25° C. and read at 480 nm in a spectrophotometer. […] Nonlinear regressions and determination of the IC50 values were performed using the GraphPad Prism 4 software.

T1 sequence (P14902 whole entry P110S/E119G): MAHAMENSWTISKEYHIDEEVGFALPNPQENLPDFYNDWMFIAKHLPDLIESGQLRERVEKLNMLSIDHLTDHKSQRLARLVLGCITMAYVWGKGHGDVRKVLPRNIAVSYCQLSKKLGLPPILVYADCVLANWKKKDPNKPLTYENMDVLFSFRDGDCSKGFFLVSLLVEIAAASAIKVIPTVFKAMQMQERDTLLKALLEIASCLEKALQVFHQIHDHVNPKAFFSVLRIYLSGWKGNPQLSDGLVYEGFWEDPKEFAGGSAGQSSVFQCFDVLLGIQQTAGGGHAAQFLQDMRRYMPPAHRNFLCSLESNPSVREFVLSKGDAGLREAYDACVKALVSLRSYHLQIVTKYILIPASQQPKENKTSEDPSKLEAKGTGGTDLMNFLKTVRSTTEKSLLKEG

SMILES	IC50
c1cnc(NCCCOc2ccccc2-c2cnc[nH]2)nc1 [Compound 98, N-(3-(2-(1H-imidazol-5-yl)phenoxy)propyl)pyrimidin-2-amine]	100 to 500 µM
c1ccc(Cc2nc[nH]c2-c2ccccc2)cc1 [Compound 123, 4-benzyl-5-phenyl-1H-imidazole]	100 to 500 µM
c1ccc(CCc2nc[nH]c2-c2ccccc2)cc1 [Compound 126, 4-phenethyl-5-phenyl-1H-imidazole]	100 to 500 µM
CC(C)(C)OC(=O)NCCn1cncc1-c1ccccc1 [Compound 114, tert-butyl 2-(5-phenyl-1H-imidazol-1-yl)ethylcarbamate]	100 to 500 µM
COC(=O)c1cccc(-c2c[nH]cn2)c1 [Compound 112, methyl 3-(1H-imidazol-4-yl)benzoate]	100 to 500 µM
CC(C)(C)CCOc1c(Br)cccc1-c1c[nH]cn1 [Compound 26, 4-(3-bromo-2-(3,3-dimethylbutoxy)phenyl)-1H-imidazole]	< 20 µM
CCc1ccc(O)c(-c2cnc[nH]2)c1 [Compound 111, 4-ethyl-2-(1H-imidazol-5-yl)phenol]	100 to 500 µM
CC(=O)N1CCC(COc2ccccc2-c2c[nH]cn2)CC1 [Compound 100, 1-(4-((2-(1H-imidazol-4-yl)phenoxy)methyl)piperidin-1-yl)ethanone]	100 to 500 µM
CCOC(=O)CCn1cncc1-c1ccccc1 [Compound 122, ethyl 3-(5-phenyl-1H-imidazol-1-yl)propanoate]	100 to 500 µM
CC(=O)N1CCCC(COc2ccccc2-c2c[nH]cn2)C1 (stereo not drawn) [Compound 117, 1-(3-((2-(1H-imidazol-4-yl)phenoxy)methyl)piperidin-1-yl)ethanone]	100 to 500 µM
N#Cc1ccccc1COc1ccccc1-c1c[nH]cn1 [Compound 99, 2-((2-(1H-imidazol-4-yl)phenoxy)methyl)benzonitrile]	100 to 500 µM
COc1ccccc1-c1cncn1CCC(C)(C)C [Compound 89, 1-(3,3-dimethylbutyl)-5-(2-methoxyphenyl)-1H-imidazole]	20 to 100 µM
O=C1c2ccccc2CC1Oc1ccccc1-c1c[nH]cn1 (stereo not drawn) [Compound 159, 2-(2-(1H-imidazol-4-yl)phenoxy)-2,3-dihydro-1H-inden-1-one]	20 to 100 µM
CS(=O)(=O)N1CCC(COc2ccccc2-c2c[nH]cn2)CC1 [Compound 84, 4-((2-(1H-imidazol-4-yl)phenoxy)methyl)-1-(methylsulfonyl)piperidine]	20 to 100 µM
CC(C)(CCOc1ccccc1-c1cnc[nH]1)CCn1ccnc1 [Compound 163, 5-(2-(5-(1H-imidazol-1-yl)-3,3-dimethylpentyloxy)phenyl)-1H-imidazole]	100 to 500 µM
CC(=O)NCCCn1cncc1-c1ccccc1 [Compound 124, N-(3-(5-phenyl-1H-imidazol-1-yl)propyl)acetamide]	100 to 500 µM
O=[N+]([O-])c1cccc(Cn2cncc2-c2ccccc2)c1 [Compound 95, 1-(3-nitrobenzyl)-5-phenyl-1H-imidazole]	20 to 100 µM
Oc1ccc(Cn2cncc2-c2ccccc2)cc1 [Compound 125, 4-((5-phenyl-1H-imidazol-1-yl)methyl)phenol]	100 to 500 µM
CS(=O)(=O)Nc1ccccc1-c1c[nH]cn1 [Compound 101, N-(2-(1H-imidazol-4-yl)phenyl)methanesulfonamide]	100 to 500 µM
NC(=O)COc1ccccc1-c1c[nH]cn1 [Compound 104, 2-(2-(1H-imidazol-4-yl)phenoxy)acetamide]	100 to 500 µM
Clc1ccc(Cn2cncc2-c2ccccc2)cc1 [Compound 54, 1-(4-chlorobenzyl)-5-phenyl-1H-imidazole]	20 to 100 µM
Cc1cccc(Cn2cncc2-c2ccccc2)c1 [Compound 90, 1-(3-methylbenzyl)-5-phenyl-1H-imidazole]	20 to 100 µM
N#Cc1ccc(Cn2cncc2-c2ccccc2)cc1 [Compound 97, 4-((5-phenyl-1H-imidazol-1-yl)methyl)benzonitrile]	20 to 100 µM
Cc1ccccc1Cn1cncc1-c1ccccc1 [Compound 77, 1-(2-methylbenzyl)-5-phenyl-1H-imidazole]	20 to 100 µM
CC(=O)Nc1ccccc1CCOc1ccccc1-c1c[nH]cn1 [Compound 165, N-(2-(2-(2-(1H-imidazol-4-yl)phenoxy)ethyl)phenyl) acetamide]	100 to 500 µM
N#Cc1cccc(COc2ccccc2-c2c[nH]cn2)c1 [Compound 74, 3-((2-(1H-imidazol-4-yl)phenoxy)methyl)benzonitrile]	20 to 100 µM
COc1cccc(OC)c1-c1c[nH]cn1 [Compound 103, 5-(2,6-dimethoxyphenyl)-1H-imidazole]	100 to 500 µM
Fc1cc(F)cc(-c2c[nH]cn2)c1 [Compound 59, 4-(3,5-difluorophenyl)-1H-imidazole]	20 to 100 µM
c1ccc(CCn2cncc2-c2ccccc2)cc1 [Compound 81, 1-phenethyl-5-phenyl-1H-imidazole]	20 to 100 µM

Next, values leading:

IC50	SMILES
< 20 µM	CC(=O)N1CCC(CCOc2ccccc2-c2c[nH]cn2)CC1 [Compound 151, 1-(4-(2-(2-(1H-imidazol-4-yl)phenoxy)ethyl)piperidin-1-yl)ethanone]
20 to 100 µM	COc1cccc(Cn2cncc2-c2ccccc2)c1 [Compound 93, 1-(3-methoxybenzyl)-5-phenyl-1H-imidazole]
20 to 100 µM	Cc1ccc(COc2ccccc2-c2c[nH]cn2)cc1 [Compound 66, 4-(2-(4-methylbenzyloxy)phenyl)-1H-imidazole]
< 20 µM	Oc1cccc(Cn2cncc2-c2ccccc2)c1 [Compound 51, 3-((5-phenyl-1H-imidazol-1-yl)methyl)phenol]
20 to 100 µM	CC(C)(CCOc1ccccc1-c1c[nH]cn1)CCC(=O)O [Compound 83, 6-(2-(1H-imidazol-4-yl)phenoxy)-4,4-dimethylhexanoic acid hydrochloride]
20 to 100 µM	Clc1ccc(COc2cc(Cl)ccc2-c2c[nH]cn2)cc1 [Compound 147, 4-(4-chloro-2-(4-chlorobenzyloxy)phenyl)-1H-imidazole]
20 to 100 µM	CC(=O)NCc1ccc(COc2ccccc2-c2c[nH]cn2)cc1 [Compound 154, N-(4-((2-(1H-imidazol-4-yl)phenoxy)methyl)benzyl) acetamide]
20 to 100 µM	Nc1ccccc1-c1cnc[nH]1 [Compound 155, 2-(1H-imidazol-4-yl)aniline]
< 20 µM	COc1cccc(O)c1-c1c[nH]cn1 [Compound 41, 2-(1H-imidazol-4-yl)-3-methoxyphenol]
< 20 µM	Clc1ccccc1CCOc1ccccc1-c1c[nH]cn1 [Compound 15, 4-(2-(2-chlorophenethoxy)phenyl)-1H-imidazole]
< 20 µM	Cc1ccccc1COc1ccccc1-c1c[nH]cn1 [Compound 37, 4-(2-(2-methylbenzyloxy)phenyl)-1H-imidazole]
< 20 µM	Brc1ccccc1CCOc1ccccc1-c1c[nH]cn1 [Compound 148, 4-(2-(2-bromophenethoxy)phenyl)-1H-imidazole]
20 to 100 µM	O=[N+]([O-])c1ccc(Cn2cncc2-c2ccccc2)cc1 [Compound 85, 1-(4-nitrobenzyl)-5-phenyl-1H-imidazole]
20 to 100 µM	OCc1ccccc1-c1c[nH]cn1 [Compound 78, (2-(1H-imidazol-4-yl)phenyl)methanol]
< 20 µM	Oc1ccc(CCOc2ccccc2-c2c[nH]cn2)cc1 [Compound 158, 4-(2-(2-(1H-imidazol-4-yl)phenoxy)ethyl)phenol]
< 20 µM	CC(C)(C)CCn1cncc1-c1ccccc1 [Compound 32, 1-(3,3-dimethylbutyl)-5-phenyl-1H-imidazole]
20 to 100 µM	Clc1ccc(COc2c(Br)cccc2-c2c[nH]cn2)cc1 [Compound 60, 4-(3-bromo-2-(4-chlorobenzyloxy)phenyl)-1H-imidazole]
< 20 µM	Oc1ccc(O)c(-c2c[nH]cn2)c1 [Compound 21, 2-(1H-imidazol-4-yl)benzene-1,4-diol]
20 to 100 µM	Clc1ccccc1OCCc1ccccc1-c1c[nH]cn1 [Compound 149, 4-(2-(2-(2-chlorophenoxy)ethyl)phenyl)-1H-imidazole]
20 to 100 µM	Clc1ccc(CCOc2ccccc2-c2c[nH]cn2)cc1 [Compound 61, 4-(2-(4-chlorophenethoxy)phenyl)-1H-imidazole]
20 to 100 µM	Clc1ccccc1COc1ccccc1-c1c[nH]cn1 [Compound 75, 4-(2-(2-chlorobenzyloxy)phenyl)-1H-imidazole]
20 to 100 µM	CC(C)(C)OC(=O)N1CCC(CCOc2ccccc2-c2c[nH]cn2)CC1 [Compound 150, tert-butyl 4-(2-(2-(1H-imidazol-4-yl)phenoxy)ethyl) piperidine-1-carboxylate]
< 20 µM	Sc1ccccc1-c1c[nH]cn1 [Compound 23, 2-(1H-imidazol-5-yl) benzenethiol]
< 20 µM	Clc1cccc(COc2ccccc2-c2cnc[nH]2)c1 [Compound 29, 5-(2-(3-chlorobenzyloxy)phenyl)-1H-imidazole]
< 20 µM	Oc1ccccc1-c1cc[nH]n1 [Compound 43, 2-(1H-pyrazol-3-yl)phenol]
< 20 µM	CC(C)(C)COc1ccccc1-c1c[nH]cn1 [Compound 31, 4-(2-(neopentyloxy)phenyl)-1H-imidazole]
< 20 µM	CNC(=O)c1cccc(CCOc2ccccc2-c2c[nH]cn2)c1 [Compound 50, 3-(2-(2-(1H-imidazol-4-yl)phenoxy)ethyl)-N-methylbenzamide]
< 20 µM	Oc1c(Br)cccc1-c1cnc[nH]1 [Compound 35, 2-bromo-6-(1H-imidazol-5-yl)phenol]
